The values below come from paper PMC5218480 (PLoS ONE, 2017).

SMILES strings stand for the structures.

The test relates to MV-4-11 cells. Put plainly: Gene expression microarray analysis (Affymetrix PrimeView) and GSEA. The following applies: MV-4-11 cells, 48 hours. It counts as cell-based, human. Further details: RFU PODN (11730768_x_at) / Fold change /veh PODN (11730768_x_at) / RFU LINC00158 (11744669_a_at) / Fold change /veh LINC00158 (11744669_a_at) / RFU DUSP10 (11751237_a_at) / Fold change /veh DUSP10 (11751237_a_at) / RFU ID3 (11757404_x_at) / Fold change /veh ID3 (11757404_x_at) / RFU PLEKHG5 (11737974_s_at) / Fold change /veh PLEKHG5 (11737974_s_at) / RFU LRRC4B (11730491_at) / Fold change /veh LRRC4B (11730491_at) / RFU GIMAP4 (11747438_a_at) / Fold change /veh GIMAP4 (11747438_a_at) / RFU KRT8 (11758183_x_at) / Fold change /veh KRT8 (11758183_x_at) / RFU CNN1 (11734310_a_at) / Fold change /veh CNN1 (11734310_a_at) / RFU VPS37D (11726825_at) / Fold change /veh VPS37D (11726825_at) / RFU C10orf10 (11716522_x_at) / Fold change /veh C10orf10 (11716522_x_at) / RFU KIR2DL2 /// KIR2DL4 /// KIR2DL5A /// KIR2DL5B /// KIR2DS1 /// KIR2DS2 /// KIR2DS3 /// KIR2DS4 /// KIR3DL3 /// KIR3DL3 /// KIR3DS1 (11738374_at) / Fold change /veh KIR2DL2 /// KIR2DL4 /// KIR2DL5A /// KIR2DL5B /// KIR2DS1 /// KIR2DS2 /// KIR2DS3 /// KIR2DS4 /// KIR3DL3 /// KIR3DL3 /// KIR3DS1 (11738374_at) / RFU C1QL1 (11718748_at) / Fold change /veh C1QL1 (11718748_at) / RFU TMPRSS4 (11747572_a_at) / Fold change /veh TMPRSS4 (11747572_a_at) / RFU HAMP (11756126_x_at) / Fold change /veh HAMP (11756126_x_at) / RFU RNFT2 (11725882_a_at) / Fold change /veh RNFT2 (11725882_a_at) / RFU NR4A2 (11747474_a_at) / Fold change /veh NR4A2 (11747474_a_at) / RFU ABCC12 (11746883_a_at) / Fold change /veh ABCC12 (11746883_a_at) / RFU TMEM136 (11760407_x_at) / Fold change /veh TMEM136 (11760407_x_at) / RFU CLDN22 /// WWC2 (11732394_at) / Fold change /veh CLDN22 /// WWC2 (11732394_at) / RFU HLA-DPB1 (11760878_x_at) / Fold change /veh HLA-DPB1 (11760878_x_at) / RFU SPINT1 (11716480_a_at) / Fold change /veh SPINT1 (11716480_a_at) / RFU GAP43 (11754022_s_at) / Fold change /veh GAP43 (11754022_s_at) / RFU A4GNT (11735810_at) / Fold change /veh A4GNT (11735810_at) / RFU PRB3 (11715151_x_at) / Fold change /veh PRB3 (11715151_x_at) / RFU TUBB4B (11761932_at) / Fold change /veh TUBB4B (11761932_at) / RFU CAPN14 (11732068_a_at) / Fold change /veh CAPN14 (11732068_a_at) / RFU TMCC2 (11721928_a_at) / Fold change /veh TMCC2 (11721928_a_at) / RFU IRGQ (11745062_a_at) / Fold change /veh IRGQ (11745062_a_at) / RFU FAM174B (11720279_a_at) / Fold change /veh FAM174B (11720279_a_at) / RFU TMPRSS4 (11748680_a_at) / Fold change /veh TMPRSS4 (11748680_a_at) / RFU FAM212B (11763350_a_at) / Fold change /veh FAM212B (11763350_a_at) / RFU PLEKHG5 (11743358_a_at) / Fold change /veh PLEKHG5 (11743358_a_at) / RFU ZSCAN30 (11745921_a_at) / Fold change /veh ZSCAN30 (11745921_a_at) / RFU CMKLR1 (11741424_a_at) / Fold change /veh CMKLR1 (11741424_a_at) / RFU LOC101060620 /// MAPK8IP1 (11723275_at) / Fold change /veh LOC101060620 /// MAPK8IP1 (11723275_at) / RFU SPTSSB (11747773_x_at) / Fold change /veh SPTSSB (11747773_x_at) / RFU PRSS12 (11739890_at) / Fold change /veh PRSS12 (11739890_at) / RFU BIN1 (11741810_x_at) / Fold change /veh BIN1 (11741810_x_at) / RFU WNT11 (11732464_a_at) / Fold change /veh WNT11 (11732464_a_at) / RFU C10orf10 (11716521_a_at) / Fold change /veh C10orf10 (11716521_a_at) / RFU C5orf56 (11738089_at) / Fold change /veh C5orf56 (11738089_at) / RFU CYB561 (11721691_x_at) / Fold change /veh CYB561 (11721691_x_at) / RFU ANKRD19P (11752326_a_at) / Fold change /veh ANKRD19P (11752326_a_at) / RFU OR2T12 /// OR2T33 /// OR2T8 (11738714_s_at) / Fold change /veh OR2T12 /// OR2T33 /// OR2T8 (11738714_s_at) / RFU VCAN (11748164_a_at) / Fold change /veh VCAN (11748164_a_at) / RFU JSRP1 (11732532_at) / Fold change /veh JSRP1 (11732532_at) / RFU KRTAP10-11 (11738290_x_at) / Fold change /veh KRTAP10-11 (11738290_x_at) / RFU MYO3A (11730013_a_at) / Fold change /veh MYO3A (11730013_a_at) / RFU EBF3 (11725865_a_at) / Fold change /veh EBF3 (11725865_a_at) / RFU CAMK2N1 (11719241_x_at) / Fold change /veh CAMK2N1 (11719241_x_at) / RFU C5orf56 (11738088_a_at) / Fold change /veh C5orf56 (11738088_a_at) / RFU OLFML3 (11715873_a_at) / Fold change /veh OLFML3 (11715873_a_at) / RFU LOC100653217 /// NTM (11731650_a_at) / Fold change /veh LOC100653217 /// NTM (11731650_a_at) / RFU MAPK11 (11762145_a_at) / Fold change /veh MAPK11 (11762145_a_at) / RFU FIZ1 (11724087_x_at) / Fold change /veh FIZ1 (11724087_x_at) / RFU OASL (11726364_x_at) / Fold change /veh OASL (11726364_x_at) / RFU SOX15 (11748057_x_at) / Fold change /veh SOX15 (11748057_x_at) / RFU CD79A (11719716_a_at) / Fold change /veh CD79A (11719716_a_at) / RFU HIST1H1D (11736915_at) / Fold change /veh HIST1H1D (11736915_at) / RFU CASKIN2 (11723855_a_at) / Fold change /veh CASKIN2 (11723855_a_at) / RFU LOC730098 (11760151_x_at) / Fold change /veh LOC730098 (11760151_x_at) / RFU OR4N2 (11742367_at) / Fold change /veh OR4N2 (11742367_at) / RFU PRRT2 (11749266_a_at) / Fold change /veh PRRT2 (11749266_a_at) / RFU SNX32 (11753110_a_at) / Fold change /veh SNX32 (11753110_a_at) / RFU CDHR5 (11726645_a_at) / Fold change /veh CDHR5 (11726645_a_at) / RFU RCAN1 (11760418_a_at) / Fold change /veh RCAN1 (11760418_a_at) / RFU FAM167A (11723789_a_at) / Fold change /veh FAM167A (11723789_a_at) / RFU FAM26E (11764081_at) / Fold change /veh FAM26E (11764081_at) / RFU ISYNA1 (11749810_s_at) / Fold change /veh ISYNA1 (11749810_s_at) / RFU ACY1 (11761880_at) / Fold change /veh ACY1 (11761880_at) / RFU 11764098_at / Fold change /veh 11764098_at / RFU SAMD14 (11745864_x_at) / Fold change /veh SAMD14 (11745864_x_at) / RFU NPB (11741838_a_at) / Fold change /veh NPB (11741838_a_at) / RFU TMPRSS6 (11731388_a_at) / Fold change /veh TMPRSS6 (11731388_a_at) / RFU KRTAP10-2 (11738614_at) / Fold change /veh KRTAP10-2 (11738614_at) / RFU ARHGAP8 /// PRR5-ARHGAP8 (11727945_x_at) / Fold change /veh ARHGAP8 /// PRR5-ARHGAP8 (11727945_x_at) / RFU KRTAP5-7 /// NADSYN1 (11734609_at) / Fold change /veh KRTAP5-7 /// NADSYN1 (11734609_at) / RFU RASL12 (11751679_a_at) / Fold change /veh RASL12 (11751679_a_at) / RFU CDKN2B (11736163_a_at) / Fold change /veh CDKN2B (11736163_a_at) / RFU PRF1 (11729649_at) / Fold change /veh PRF1 (11729649_at) / RFU, ZNF638 /// ZNF638-IT1 / Fold change vs veh, ZNF638 /// ZNF638-IT1 / RFU, PANK3 / Fold change vs veh, PANK3 / RFU, SH3YL1 / Fold change vs veh, SH3YL1 / RFU, ZEB2 / Fold change vs veh, ZEB2 / RFU, NRIP1 / Fold change vs veh, NRIP1 / RFU, PTTG1IP / Fold change vs veh, PTTG1IP / RFU, CAPN2 / Fold change vs veh, CAPN2 / RFU, MED14 / Fold change vs veh, MED14 / RFU, SNORA58 / Fold change vs veh, SNORA58 / RFU, C1orf63 / Fold change vs veh, C1orf63 / RFU, LRRFIP1 / Fold change vs veh, LRRFIP1 / RFU, NDUFAF7 / Fold change vs veh, NDUFAF7 / RFU, SLC12A2 / Fold change vs veh, SLC12A2 / RFU, IBTK / Fold change vs veh, IBTK / RFU, ESF1 / Fold change vs veh, ESF1 / Fold change vs veh, TMEM50B / RFU, TAOK1 / Fold change vs veh, TAOK1 / RFU, ACBD3 / Fold change vs veh, ACBD3 / RFU, TMA16 / Fold change vs veh, TMA16 / RFU, RWDD3 / Fold change vs veh, RWDD3 / RFU, BCAT1 / Fold change vs veh, BCAT1 / RFU, EDEM3 / Fold change vs veh, EDEM3 / RFU, TMEM33 / Fold change vs veh, TMEM33 / RFU, WDR75 / Fold change vs veh, WDR75 / RFU, AHCTF1 / Fold change vs veh, AHCTF1 / RFU, TFRC / Fold change vs veh, TFRC / RFU, ZDHHC17 / Fold change vs veh, ZDHHC17 / RFU, NOM1 / Fold change vs veh, NOM1 / RFU, ARL8B / Fold change vs veh, ARL8B / RFU, ZBTB11 / Fold change vs veh, ZBTB11 / RFU, TAMM41 / Fold change vs veh, TAMM41 / RFU, KIAA1704 /// LOC100996395 / Fold change vs veh, KIAA1704 /// LOC100996395 / RFU, ING1 / Fold change vs veh, ING1 / RFU, TRMT61B / Fold change vs veh, TRMT61B / RFU, FUBP3 / Fold change vs veh, FUBP3 / RFU, TP53 / Fold change vs veh, TP53 / RFU, TNKS2 / Fold change vs veh, TNKS2 / RFU, ZFP14 / Fold change vs veh, ZFP14 / RFU, ACTR2 / Fold change vs veh, ACTR2 / RFU, PPP3R1 / Fold change vs veh, PPP3R1 / RFU, PIK3R1 / Fold change vs veh, PIK3R1 / RFU, HNRNPA1 / Fold change vs veh, HNRNPA1 / RFU, RNF170 / Fold change vs veh, RNF170 / RFU, ZNF28 / Fold change vs veh, ZNF28 / RFU, RNGTT / Fold change vs veh, RNGTT / RFU, OGT / Fold change vs veh, OGT / RFU, BRD1 / Fold change vs veh, BRD1 / RFU, MARS / Fold change vs veh, MARS / RFU, ZNF655 / Fold change vs veh, ZNF655 / RFU, FAHD1 / Fold change vs veh, FAHD1 / RFU, BDP1 / Fold change vs veh, BDP1 / RFU, LRRCC1 / Fold change vs veh, LRRCC1 / RFU, ARID1A / Fold change vs veh, ARID1A / RFU, ZNF146 / Fold change vs veh, ZNF146 / RFU, ZNF330 / Fold change vs veh, ZNF330 / RFU, GPN3 / Fold change vs veh, GPN3 / RFU, C9orf123 / Fold change vs veh, C9orf123 / RFU, N4BP2L2 / Fold change vs veh, N4BP2L2 / RFU, ARFIP1 / Fold change vs veh, ARFIP1 / RFU, FAM179B / Fold change vs veh, FAM179B / RFU, BCL10 / Fold change vs veh, BCL10 / RFU, UHRF1BP1L / Fold change vs veh, UHRF1BP1L / RFU, BET1 / Fold change vs veh, BET1 / RFU, CNOT2 / Fold change vs veh, CNOT2 / RFU, ZNF268 / Fold change vs veh, ZNF268 / Fold change vs veh, ZNF507 / RFU, DGCR2 / Fold change vs veh, DGCR2 / RFU, WDSUB1 / Fold change vs veh, WDSUB1 / Fold change vs veh, HSP90B1 /// MIR3652 / RFU, ADSS / Fold change vs veh, ADSS / RFU, GK / Fold change vs veh, GK / RFU, ZNF148 / Fold change vs veh, ZNF148 / RFU, TAF9 / Fold change vs veh, TAF9 / RFU, SLC1A5 / Fold change vs veh, SLC1A5 / RFU, SLMO2 / Fold change vs veh, SLMO2 / RFU, ABCC4 / Fold change vs veh, ABCC4 / RFU, LOC101060439 /// RAP1B / Fold change vs veh, LOC101060439 /// RAP1B / RFU, RFX7 / Fold change vs veh, RFX7 / RFU, GTPBP10 / Fold change vs veh, GTPBP10 / RFU, CNEP1R1 / Fold change vs veh, CNEP1R1 / RFU, BIVM-ERCC5 /// ERCC5 / Fold change vs veh, BIVM-ERCC5 /// ERCC5 / RFU, ILF3 / Fold change vs veh, ILF3 / RFU 11762660_at / Fold change /veh 11762660_at / RFU VCAN (11757783_s_at) / Fold change /veh VCAN (11757783_s_at) / RFU DDX43 (11728927_at) / Fold change /veh DDX43 (11728927_at) / RFU KRT8 (11758188_x_at) / Fold change /veh KRT8 (11758188_x_at) / RFU NKD1 (11759106_at) / Fold change /veh NKD1 (11759106_at) / RFU SRD5A1 (11742802_a_at) / Fold change /veh SRD5A1 (11742802_a_at) / RFU TPSAB1 /// TPSB2 (11721975_s_at) / Fold change /veh TPSAB1 /// TPSB2 (11721975_s_at) / RFU GSTM3 (11746129_a_at) / Fold change /veh GSTM3 (11746129_a_at) / RFU IL23R (11737362_x_at) / Fold change /veh IL23R (11737362_x_at) / RFU TMEM51 (11727254_a_at) / Fold change /veh TMEM51 (11727254_a_at) / RFU PIWIL2 (11732686_x_at) / Fold change /veh PIWIL2 (11732686_x_at) / RFU ORM1 (11744905_x_at) / Fold change /veh ORM1 (11744905_x_at) / RFU CCDC152 (11743942_at) / Fold change /veh CCDC152 (11743942_at) / RFU ECM1 (11717891_a_at) / Fold change /veh ECM1 (11717891_a_at) / RFU IL23R (11748794_a_at) / Fold change /veh IL23R (11748794_a_at) / RFU TNFAIP8L3 (11732012_x_at) / Fold change /veh TNFAIP8L3 (11732012_x_at) / RFU MBOAT4 (11741988_at) / Fold change /veh MBOAT4 (11741988_at) / RFU 11764193_at / Fold change /veh 11764193_at / RFU TMEM53 (11763286_at) / Fold change /veh TMEM53 (11763286_at) / RFU MAGEB2 (11727129_at) / Fold change /veh MAGEB2 (11727129_at) / RFU TMEM200A (11744735_a_at) / Fold change /veh TMEM200A (11744735_a_at) / RFU CCDC152 (11751479_a_at) / Fold change /veh CCDC152 (11751479_a_at) / RFU FAM211A (11726209_a_at) / Fold change /veh FAM211A (11726209_a_at) / RFU RGS16 (11746705_a_at) / Fold change /veh RGS16 (11746705_a_at) / RFU VCAN (11755009_s_at) / Fold change /veh VCAN (11755009_s_at) / RFU RHOB (11743442_s_at) / Fold change /veh RHOB (11743442_s_at) / RFU RGS16 (11720943_a_at) / Fold change /veh RGS16 (11720943_a_at) / RFU RGS16 (11720944_at) / Fold change /veh RGS16 (11720944_at) / RFU, VPS4B / Fold change vs veh, VPS4B / RFU, CREB1 / Fold change vs veh, CREB1 / RFU, DNAJC13 / Fold change vs veh, DNAJC13 / RFU, GNAQ / Fold change vs veh, GNAQ / RFU, CDK5R1 / Fold change vs veh, CDK5R1 / RFU, ZRANB3 / Fold change vs veh, ZRANB3 / RFU, CUL4A / Fold change vs veh, CUL4A / RFU, CCNY / Fold change vs veh, CCNY / RFU, UFL1 / Fold change vs veh, UFL1 / RFU, COG3 / Fold change vs veh, COG3 / RFU, DIAPH2 / Fold change vs veh, DIAPH2 / RFU, SKA2 / Fold change vs veh, SKA2 / RFU, AFF3 / Fold change vs veh, AFF3 / RFU, LMF1 / Fold change vs veh, LMF1 / RFU, IPO11 / Fold change vs veh, IPO11 / RFU, DFFB / Fold change vs veh, DFFB / RFU, FOXP1 / Fold change vs veh, FOXP1 / RFU, CARD8 / Fold change vs veh, CARD8 / RFU, STRN3 / Fold change vs veh, STRN3 / RFU, ADK / Fold change vs veh, ADK / RFU, RASSF2 / Fold change vs veh, RASSF2 / RFU, WIPF1 / Fold change vs veh, WIPF1 / RFU, LARP1B / Fold change vs veh, LARP1B / RFU, RASA1 / Fold change vs veh, RASA1 / RFU, RB1 / Fold change vs veh, RB1 / RFU, PPFIA1 / Fold change vs veh, PPFIA1 / RFU, MAT2A / Fold change vs veh, MAT2A / RFU, CCT5 / Fold change vs veh, CCT5 / RFU, WDR92 / Fold change vs veh, WDR92 / RFU, CUX1 / Fold change vs veh, CUX1 / RFU, TTC7A / Fold change vs veh, TTC7A / RFU, TMEM135 / Fold change vs veh, TMEM135 / RFU, DEPTOR / Fold change vs veh, DEPTOR / RFU, CPM / Fold change vs veh, CPM / RFU, DNAJB6 / Fold change vs veh, DNAJB6 / RFU, CACNA2D3 / Fold change vs veh, CACNA2D3 / RFU, DTX4 / Fold change vs veh, DTX4 / RFU, TFCP2 / Fold change vs veh, TFCP2 / RFU, GMCL1 /// GMCL1P1 / Fold change vs veh, GMCL1 /// GMCL1P1 / RFU, AEBP2 / Fold change vs veh, AEBP2 / RFU, SNHG1 /// SNORD22 /// SNORD25 /// SNORD26 /// SNORD27 /// SNORD28 /// SNORD29 /// SNORD31 / Fold change vs veh, SNHG1 /// SNORD22 /// SNORD25 /// SNORD26 /// SNORD27 /// SNORD28 /// SNORD29 /// SNORD31 / Fold change (Aza/veh), C12orf56 (ProbeSet 11735607_a_at) / Fold change (ACY-1035/veh), C12orf56 (ProbeSet 11735607_a_at) / Fold change (Aza/veh), FGFR1OP (ProbeSet 11751329_s_at) / Fold change (ACY-1035/veh), FGFR1OP (ProbeSet 11751329_s_at) / Fold change (Aza/veh), VPS36 (ProbeSet 11739960_a_at) / Fold change (ACY-1035/veh), VPS36 (ProbeSet 11739960_a_at) / RFU SYPL1 (11715823_x_at) / Fold change /veh SYPL1 (11715823_x_at) / RFU IGFBP7 (11715501_s_at) / Fold change /veh IGFBP7 (11715501_s_at) / RFU REEP3 (11722064_at) / Fold change /veh REEP3 (11722064_at) / RFU IGLL1 (11728026_x_at) / Fold change /veh IGLL1 (11728026_x_at): dose or concentration left out as unconfirmed.

Consider `Nc1ncn([C@@H]2O[C@H](CO)[C@@H](O)[C@H]2O)c(=O)n1` [azacitidine], for which the “RFU ID3 (11757404_x_at)” value is listed as 51.53 RFU.
